# Data: patent US20210145983A1, “METHODS AND COMPOSITIONS OF INHIBITING CSF1R FOR TREATING ALLERGIC INFLAMMATION” (THE BOARD OF TRUSTEES OF THE UNIVERSITY OF ILLINOIS, priority 2018, published 2021)
# Columns and labels:
# [1] = system: acute DRA induced murine model of asthma; experiment: acute DRA induced murine model of asthma; format: in vivo, mouse; conditions: 10 mg/kg intraperitoneally on day 10, 12 and 14
# Excerpt: B. Experimental Design. DRA triple allergens were delivered via intranasal route as depicted.
# IgE = conditions: cited from earlier work
# Sequence of IgE (P01854 1-426 limits assumed): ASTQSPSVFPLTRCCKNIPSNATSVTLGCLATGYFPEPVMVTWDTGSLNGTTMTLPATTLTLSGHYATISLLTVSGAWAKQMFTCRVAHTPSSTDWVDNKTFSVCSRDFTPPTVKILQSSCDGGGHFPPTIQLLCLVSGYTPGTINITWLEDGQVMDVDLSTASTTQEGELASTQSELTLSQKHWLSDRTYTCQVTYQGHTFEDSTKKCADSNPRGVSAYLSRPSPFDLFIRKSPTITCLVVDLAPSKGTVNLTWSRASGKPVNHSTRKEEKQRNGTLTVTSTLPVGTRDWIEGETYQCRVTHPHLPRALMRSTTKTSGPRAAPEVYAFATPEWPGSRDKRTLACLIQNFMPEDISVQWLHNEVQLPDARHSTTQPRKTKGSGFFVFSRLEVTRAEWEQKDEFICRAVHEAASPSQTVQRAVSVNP
Molecule,Th2 cytokine increase in BAL fluids [1],allergic lung inflammation (lung pathology) [1],eosinophil recruitment to BAL fluid [1],serum IgE rise [1],"control of asthma exacerbations (IgE; inner city children already sensitized to cockroach, Busse W W, et al. 2011)","control of seasonal exacerbations (IgE; pre-seasonal treatment, poorly controlled asthmatics, Teach S J, et al. 2015)"
"FC(F)(F)c1ccc(CNc2ccc(Cc3c[nH]c4ncc(Cl)cc34)cn2)cn1 [PLX3397, 5-((5-chloro-1H-pyrrolo[2,3-b]pyridin-3-yl)methyl)-N-((6-(trifluoromethyl)pyridin-3-yl)methyl)pyridin-2-amine]",attenuated,markedly reduced,blocked,attenuated,,
omalizumab: a humanized monoclonal anti-IgE antibody,,,,,significant benefit,effective
